Results from US11584763B2, “Chromenopyridine derivatives as phosphatidylinositol phosphate kinase inhibitors” (HIBERCELL, INC., priority 2017, dated 2023).

Columns and labels:
Type in all cases: biochemical
PIP4K 2A [1] = target: T1, PIP4K 2A (Homo sapiens, UniProt P48426); assay: ADP-glo kinase assay PIP4K 2A; design: 4 nM PIP4K2A (full length protein, SignalChem); purchased SignalChem; settings: compounds listed under IC50 bin headings
T1 sequence (P48426 1-406): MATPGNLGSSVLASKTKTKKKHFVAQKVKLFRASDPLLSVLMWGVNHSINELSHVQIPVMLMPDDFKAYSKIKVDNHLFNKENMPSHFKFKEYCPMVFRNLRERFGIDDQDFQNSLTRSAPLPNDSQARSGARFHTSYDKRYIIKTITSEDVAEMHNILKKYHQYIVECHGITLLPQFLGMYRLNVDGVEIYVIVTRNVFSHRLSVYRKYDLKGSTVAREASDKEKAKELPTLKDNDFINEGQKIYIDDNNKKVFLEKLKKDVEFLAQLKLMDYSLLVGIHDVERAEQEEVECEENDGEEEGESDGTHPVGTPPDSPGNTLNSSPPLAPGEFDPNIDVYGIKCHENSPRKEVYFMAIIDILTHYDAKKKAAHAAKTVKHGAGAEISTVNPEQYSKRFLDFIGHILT
How it was run: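 Inhibition was calculated versus DMSO controls from ADP-Glo luminescence and fitted to IC50 over a 10-point, threefold series. Compound was first pre-incubated 15 min at room temperature with PIP4K2A (full-length; 4 nM in the enzyme/substrate mix) and PI(5)P diC8 (100 μM in that mix). The reaction then ran for 1 h after adding 60 μM ATP solution, in MOPS pH 7.2/MgCl2/Tween buffer.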

PIP4K 2A [2] = target: T1, PIP4K 2A; assay: Kinase Assay PIP4K2 A (PIP4KtypeIIA inhibition assay); design: made in house; host or cells: E. coli; settings: compounds listed under IC50 bin headings
Description: GST tagged PIP4KtypeIIA and B enzymes were overexpressed in E. Coli and purified to >80% homogeneity. Phosphatidyl inositol-5-phosphate (PI5P, Cat. #850152, Avanti Polar Lipids Inc.) was used as the lipid substrate and phosphatidyl ethanolamine (DOPE 18:1, Cat. #850725, Avanti Polar Lipids Inc.) was used as the carrier lipid for assays. Ultrapure ATP and GTP was purchased from Bellbrooke Labs. ADP Glo reagents were obtained from Promega. Transcreener FI reagent was obtained from Bellbrooke labs.
Enzyme preparation: GST-tagged PIP4KtypeIIA (5 uL, 1.43 mg/mL) was diluted (1:10) to 50 uL using HNE buffer. From the 1:10 diluted stock, a 6.4 uL aliquot was diluted further to 5 mL using HNE buffer to yield 5× enzyme stock (2.5 nM).
Lipid Preparation: In a 10 mL pyrex glass vial, 1 ug of PI5P and 1 ug of DOPE were suspended in 2.5 mL of HEPES buffer mix and 2.5 mL of H:E buffer. The contents were mixed and sonicated for 3 min to yield a translucent lipid stock.
Compound Preparation: Compounds were stored as 5 mM stocks in neat DMSO as room temperature in glass vials. 5 mM stocks were diluted to 2 mM and then serially diluted (3×) in neat DMSO in 96 well polypropylene plates. From the serially diluted stocks, 3 uL was delivered into 250 uL of 25% DMSO (in water) to generate 5× compound stocks. Typically, the highest compound conc. was 24 uM.
The assay volume was kept at 25 uL. To each well of the reaction plate, 10 uL of lipid stock (1:1 ratio PI5P:DOPE) was delivered. This was followed by the addition of 5 uL of compound in 25% DMSO. Then, to each well, 5 uL of 2.5 nM (5×) typeIIA enzyme was delivered. The contents were mixed well and incubated for 1 h at 27 C. After 1 h, reaction was initiated by adding 5 uL of 50 uM ATP and the contents were mixed well with a multi-channel pipetteman. The final concentration of the reagents are as follows: 50 mM HEPES, pH 7.3, 10 mM MgCl2, 20 mM NaCl, 0.01% v/v triton-X100, 5% DMSO, 10 uM ATP, 80 uM (2 ug) PI5P, 2 ug DOPE, and 0.5 nM PIP4KIIA. Typically, the highest conc. of compounds was 4.8 uM and the lowest conc. was 0.
After 1 hr, the reaction was quenched by adding 25 uL of ADP Glo reagent. The contents were incubated for 1 hr. Afterwards, 50 uL of kinase detection reagent was delivered. The contents were incubated for another hour. The luminescence was read using Molecular Devices Paradigm plate reader. […] The blanks were averaged and subtracted from all other wells. Using a calibration curve, RLU was converted to uM ADP (product). IC50 was calculated by plotting the residual activity (expressed as % No inhibitor control) vs. log [Inh. conc.]

PIP4K2B = target: T2, PIP4K2B (Homo sapiens, UniProt P78356); assay: Trans-FI P kinase assay PIP4K2B (PIP4KtypeIIB inhibition assay); settings: compounds listed under IC50 bin headings; 100 uM GTP; read-out: Trans-FI P kinase assays: PIP4K2B IC50
T2 construct: made in house; host or cells: E. coli
T2 sequence (P78356 1-416): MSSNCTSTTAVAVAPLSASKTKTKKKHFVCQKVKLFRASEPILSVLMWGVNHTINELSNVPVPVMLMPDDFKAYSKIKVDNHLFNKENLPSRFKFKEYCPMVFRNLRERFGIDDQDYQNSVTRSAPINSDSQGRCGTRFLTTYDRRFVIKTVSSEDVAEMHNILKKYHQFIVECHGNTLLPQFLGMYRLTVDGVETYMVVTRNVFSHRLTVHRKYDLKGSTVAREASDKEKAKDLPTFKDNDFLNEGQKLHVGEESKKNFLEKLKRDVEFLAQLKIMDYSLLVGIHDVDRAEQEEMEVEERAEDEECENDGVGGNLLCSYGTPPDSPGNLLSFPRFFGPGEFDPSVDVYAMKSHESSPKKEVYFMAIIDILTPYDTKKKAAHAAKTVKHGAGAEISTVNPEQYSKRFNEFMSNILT
How it was run: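 Transcreener FI fluorescence read-out of GDP formed by E. coli-expressed GST-PIP4K2B (5 nM) using 100 uM GTP and 80 uM PI5P with DOPE carrier lipid, pH 7.3, 2 h reaction. Compounds (up to 4.8 uM) were preincubated with enzyme 1 h at 27 C; IC50 fitted from residual activity relative to no-inhibitor control.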

| IC50 (PIP4K 2A [1]) | IC50 (PIP4K 2A [2]) | IC50 (PIP4K2B) | Compound |
| --- | --- | --- | --- |
| 0.001 to 0.01 µM | 0.001 to 0.01 µM | 0.1 to 1 µM | CC1Oc2cc(C(=O)N(C)C)ccc2-c2cnc(Nc3cccnc3)cc21 (centres unmarked) [Example 31, N,N,5-trimethyl-3-(pyridin-3-ylamino)-5H-chromeno[4,3-c]pyridine-8-carboxamide] |
| 0.001 to 0.01 µM | ≤ 0.001 µM | 0.01 to 0.1 µM | CC1Oc2cc(C(=O)N(C)C)ccc2-c2cnc(Nc3cncc(N4CCCC4=O)c3)cc21 (centres unmarked) [Example 32, N,N,5-trimethyl-3-((5-(2-oxopyrrolidin-1-yl)pyridin-3-yl)amino)-5H-chromeno[4,3-c]pyridine-8-carboxamide] |
| 0.001 to 0.01 µM | ≤ 0.001 µM | 0.001 to 0.01 µM | CC1Oc2cc(C(=O)N(C)C)ccc2-c2cnc(Nc3cnc4c(c3)N3C(=O)CC[C@H]3CO4)cc21 (stereo partly drawn) [Example 33, N,N,5-trimethyl-3-(((S)-9-oxo-6a,7,8,9-tetrahydro-6H-pyrido[2,3-b]pyrrolo[1,2-d][1,4]oxazin-2-yl)amino)-5H-chromeno[4,3-c]pyridine-8-carboxamide] |
| 0.001 to 0.01 µM | 0.001 to 0.01 µM | 0.01 to 0.1 µM | CN(C)C(=O)c1ccc2c(c1)OC(C1CC1)c1cc(Nc3cccnc3)ncc1-2 (centres unmarked) [Example 34, 5-cyclopropyl-N,N-dimethyl-3-(pyridin-3-ylamino)-5H-chromeno[4,3-c]pyridine-8-carboxamide] |
| 0.001 to 0.01 µM | ≤ 0.001 µM | 0.001 to 0.01 µM | CN(C)C(=O)c1ccc2c(c1)OC(C1CC1)c1cc(Nc3cncc(N4CCCC4=O)c3)ncc1-2 (centres unmarked) [Example 35, 5-cyclopropyl-N,N-dimethyl-3-((5-(2-oxopyrrolidin-1-yl)pyridin-3-yl)amino)-5H-chromeno[4,3-c]pyridine-8-carboxamide] |
| ≤ 0.001 µM | ≤ 0.001 µM | 0.001 to 0.01 µM | CN(C)C(=O)c1ccc2c(c1)OC(C1CC1)c1cc(Nc3cnc4c(c3)N3C(=O)CC[C@H]3CO4)ncc1-2 (stereo partly drawn) [Example 36, 5-cyclopropyl-N,N-dimethyl-3-(((S)-9-oxo-6a,7,8,9-tetrahydro-6H-pyrido[2,3-b]pyrrolo[1,2-d][1,4]oxazin-2-yl)amino)-5H-chromeno[4,3-c]pyridine-8-carboxamide] |
| 0.01 to 0.1 µM | 0.001 to 0.01 µM | 0.1 to 1 µM | CC1c2cc(Nc3cccnc3)ncc2-c2ccc(C(=O)N(C)C)cc2N1C (centres unmarked) [Example 37, N,N,5,6-tetramethyl-3-(pyridin-3-ylamino)-5,6-dihydrobenzo[c][2,6]naphthyridine-8-carboxamide] |
| – | 0.01 to 0.1 µM | 0.1 to 1 µM | CC1Oc2cc(N3CCCC3=O)ccc2-c2cnc(Nc3cnc4c(c3)N3[C@H](CO4)CN(C)S3(=O)=O)cc21 (stereo partly drawn) [Example 187, 1-(5-methyl-3-(((S)-2-methyl-1,1-dioxido-2,3,3a,4-tetrahydropyrido[2,3-b][1,2,5]thiadiazolo[2,3-d][1,4]oxazin-8-yl)amino)-5H-chromeno[4,3-c]pyridin-8-yl)pyrrolidin-2-one] |
| ≤ 0.001 µM | ≤ 0.001 µM | – | C[C@@H]1Oc2cc(N3CCCC3=O)ccc2-c2cnc(Nc3cnc4c(c3)N3C(=O)CC[C@H]3CO4)cc21 [Example 193, (S)-2-(((S)-5-methyl-8-(2-oxopyrrolidin-1-yl)-5H-chromeno[4,3-c]pyridin-3-yl)amino)-6,6a,7,8-tetrahydro-9H-pyrido[2,3-b]pyrrolo[1,2-d][1,4]oxazin-9-one] |
| – | ≤ 0.001 µM | 0.001 to 0.01 µM | Cc1conc1-c1ccc2c(c1)OC(C)(C)c1cc(Nc3cnc4c(c3)N3C(=O)CC[C@H]3CO4)ncc1-2 [Example 209, (S)-2-((5,5-dimethyl-8-(4-methylisoxazol-3-yl)-5H-chromeno[4,3-c]pyridin-3-yl)amino)-6,6a,7,8-tetrahydro-9H-pyrido[2,3-b]pyrrolo[1,2-d][1,4]oxazin-9-one] |
| – | ≤ 0.001 µM | 0.001 to 0.01 µM | Cn1cnnc1-c1ccc2c(c1)OC(C)(C)c1cc(Nc3cnc4c(c3)N3C(=O)CC[C@H]3CO4)ncc1-2 [Example 211, (S)-2-((5,5-dimethyl-8-(4-methyl-4H-1,2,4-triazol-3-yl)-5H-chromeno[4,3-c]pyridin-3-yl)amino)-6,6a,7,8-tetrahydro-9H-pyrido[2,3-b]pyrrolo[1,2-d][1,4]oxazin-9-one] |
